The source of these data is patent publication US9511107B2, “Phenolic compositions derived from apple skin and uses thereof” (priority 2010, dated 2016).

For one data set, the system named is primary cortical neurons. Briefly: LDH release of primary cortical neurons subjected to oxygen glucose deprivation (OGD). In kind it is cell-based, mouse. The conditions noted are these: comparison with F4; concentration not given. Here is the method:
Lactate dehydrogenase is a stable cytosolic enzyme that is released by necrotic cells upon membrane damage. The membrane integrity of cortical neurons was assayed by measuring the release of lactate dehydrogenase (LDH) using the Cytotoxicity Detection Kit^PLUS (Roche Applied Science). This assay kit detects LDH released into culture supernates by a coupled enzymatic reaction. Positive (100% LDH release) and negative (spontaneous LDH release) controls were prepared in triplicate according to the manufacturer's instructions. Primary cortical neuron cultures were prepared from cerebral cortices of embryonic day 16 CD1 mouse embryos. Cortical neuron cultures were exposed to vehicle (0.1% dimethyl sulfoxide (DMSO)) or F4 at concentrations of 1, 0.1 or 0.01 μg/mL in serum-free conditions for a period of 12 h before they were subjected to oxygen glucose deprivation (OGD). The neurons were exposed to vehicle or F4 at concentrations of 1, 0.1 or 0.01 μg/mL phenolics throughout the 12 h period of OGD. Following, cell culture supernates were collected for determination of released LDH. Absorbance was measured at 490 nm with a reference wavelength of 620 nm. Percentage of total LDH release was calculated by following the instructions provided by the manufacturer. Background was subtracted and LDH release in each sample was expressed as a percentage of the positive control.
(LDH leaks from cells whose membrane has failed.)

For data set [1] the following is noted: humans, 1 g per day for 1 month; cited from earlier work.

Each structure is given as a SMILES string.

Regarding `O=c1c(O[C@@H]2O[C@H](CO)[C@@H](O)[C@H](O)[C@H]2O)c(-c2ccc(O)c(O)c2)oc2cc(O)cc(O)c12` [Fraction Q3G, quercetin 3-O-glucoside], in the data set with primary cortical neurons, the “reduction of death of primary cortical neurons subjected to OGD (F4 components and metabolites, FIG. 7)” value (“reduction” below) is given as “no significant reduction”.

As for `COc1cc(-c2oc3cc(O)cc(O)c3c(=O)c2O[C@@H]2O[C@H](C(=O)O)[C@@H](O)[C@H](O)[C@H]2O)ccc1O` [IR3GlcA], the “reduction” value in the data set with primary cortical neurons is recorded as “no significant reduction”.

For `O=c1c(O)c(-c2ccc(O)c(O)c2)oc2cc(O)cc(O)c12` [Q, Quercetin], in data set [1], the safety entry was “safe”. Also, the “reduction” value with primary cortical neurons is given as “no significant reduction”.
